# Source: patent publication US20210154119A1, “ASMT EXPRESSION PROMOTER” (Shiseido Company, Ltd., priority 2018, published 2021)
# System: ASMT gene
# Experiment: ASMT gene expression level in epidermal keratinocytes by quantitative PCR
# Format: cell-based
# Protocol: Commercially available normal adult skin-derived keratinocytes (Kurabo) were inoculated into a T75 flask at 5×10^5 cells/flask, and were cultured in a keratinocyte medium (Humedia-KG2, Kurabo) at 37° C. in a 5% CO2 atmosphere until they reached semiconfluency. The resulting cells were used as seed cells. The keratinocytes were collected by trypsinization, and inoculated into a 24-well plate at 2×10^4 cells/well, and cultured in a keratinocyte medium (Humedia-KG2, Kurabo) at 37° C., 5% CO2 atmosphere until they reached confluency.
# To the epidermal keratinocytes having reached confluency was added the ectoin sample at an appropriate dilution ratio so that the ectoin concentration in the medium was 1 mM, followed by the continuation of the culture at 37° C. in a 5% CO2 atmosphere. As a control, a medium not containing the ectoin sample was used to carry out the culture.
# Ten hours after the addition of ectoin, the medium was removed. Then the cells were lysed and RNA was extracted therefrom using a commercially available RNA extraction reagent (RNeasy Mini Kit, Qiagen).
# Using the thus extracted RNA as a template, quantitative PCR was performed with a commercially available quantitative PCR reagent (BrilliantII QRT-PCR kit, Agilent) and a quantitative PCR device (Mx-3005P, Agilent), by which the expression level of the ASMT gene was determined. At the same time, the expression level of the RPLP0 gene whose expression level was almost constant was also determined as an internal standard. Commercially available PCR primer set (Takara Bio Inc.) specific to each gene was used.
# To the epidermal keratinocytes cultured in the same manner as in Example 1 was added the ectoin sample at appropriate dilution ratios so that the ectoin concentration in the medium was 0.005 wt %, 0.01 wt %, 0.02 wt %, 0.05 wt %, 0.1 wt %, followed by the continuation of the culture at 37° C. in a 5% CO2 atmosphere.
# To the epidermal keratinocytes cultured in the same manner as in Example 1 was added the respective samples at appropriate dilution ratios so that the concentration in the medium was respectively 1 mM (ectoine), 100 μM (glycosyl hesperidin), 0.1% (green tea extract), and 0.1% (oolong tea extract). These concentrations are all normal concentrations to be used in external formulations. After the addition of the samples, the cells were cultured, from which the ASMT expression level was evaluated in the same manner as in Example 1. As a control, a medium not containing any sample was used to carry out the culture.
smiles,measurement,setting,value
"CC1=N[C@H](C(=O)O)CCN1 [ectoin, (4S)-2-methyl-1,4,5,6-tetrahydropyrimidine-4-carboxylic acid]",ASMT gene expression level relative to control (control set to 1),"ectoin 1 mM in medium, 10 hours, normal adult skin-derived keratinocytes, versus medium containing no ectoin (FIG. 1)",very high ASMT expression promoting action
same,Concentration-dependency of ASMT expression promoting action,"ectoin 0.005-0.1 wt % in medium, 10 hours, keratinocytes (FIG. 2)",dependent on the concentration thereof
same,ASMT gene expression level (ASMT/RPLP0) in comparison with various antioxidants,"ectoine 1 mM versus glycosyl hesperidin 100 μM, green tea extract 0.1%, oolong tea extract 0.1%, keratinocytes (FIG. 3)","higher than that of green tea extract, oolong tea extract, and glycosyl hesperidin"
same,ASMT gene expression level (ASMT/RPLP0),"ectoine 0.02 wt % in medium, 10 hours, keratinocytes, compared with 0.005 wt % and 0.01 wt % (FIG. 2)","higher than the cases of lower concentrations of ectoine (0.005 wt %, 0.01 wt %)"
